# How the values were obtained:
# Assay type in all cases: biochemical
# Met = molecular target: T1, Met (Homo sapiens, UniProt P08581); test: AlphaScreen kinase assay, Met; conditions: read-out: IC50, activity toward kinase Met
# T1 construct: P1818.pETN6 BI-PTP MET G1056-G1364-X WT; His6 (N); made in house; host or cells: E. coli (PTP1B co-expressed)
# Outline: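 Biotinylated peptide substrate is phosphorylated by kinase; anti-phosphopeptide antibody on acceptor beads and streptavidin donor beads bring emission when substrate is phosphorylated. Inhibition lowers acceptor signal. Compounds from 20 mM DMSO stock tested as 8-point 1:3 serial dilutions.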
# Plk1 = Plk1 (Homo sapiens, UniProt P53350); test: AlphaScreen kinase assay, Plk1; conditions: read-out: IC50, activity toward kinase Plk1
# Source text: (§1) AlphaScreen assay was used to screen additional kinases. The assay is similarly dependent on the phosphorylation of a peptide substrate. In this assay, an antibody that recognizes phosphorylated substrate is bound to an acceptor bead. The peptide substrate is attached to biotin, which binds to a donor head that contains streptavidin. Thus phosphorylated substrate is bound by antibody and streptavidin, bringing the donor and acceptor heads into close proximity when kinase is not inhibited. The donor produces singlet oxygen which results in emission from the acceptor when they are in close proximity. Conversely, when kinase is inhibited, the donor and acceptor beads are not associated and the emission from the acceptor is reduced.
# (§2) AlphaScreen assays were done using compounds dissolved in DMSO to a concentration of 20 mM. The compounds were diluted accordingly to the desired final concentrations in each sample well, using 1:3 serial dilution for a total of 8 concentration points.
# Stk6 = molecular target: T2, Stk6 (Homo sapiens, UniProt O14965); test: Z'-Lyte FRET kinase assay (Invitrogen), Stk6; conditions: read-out: IC50, activity toward kinase Stk6
# T2 construct: purchased Invitrogen (Carlsbad, Calif.), screening service
# T2 sequence (O14965 1-403): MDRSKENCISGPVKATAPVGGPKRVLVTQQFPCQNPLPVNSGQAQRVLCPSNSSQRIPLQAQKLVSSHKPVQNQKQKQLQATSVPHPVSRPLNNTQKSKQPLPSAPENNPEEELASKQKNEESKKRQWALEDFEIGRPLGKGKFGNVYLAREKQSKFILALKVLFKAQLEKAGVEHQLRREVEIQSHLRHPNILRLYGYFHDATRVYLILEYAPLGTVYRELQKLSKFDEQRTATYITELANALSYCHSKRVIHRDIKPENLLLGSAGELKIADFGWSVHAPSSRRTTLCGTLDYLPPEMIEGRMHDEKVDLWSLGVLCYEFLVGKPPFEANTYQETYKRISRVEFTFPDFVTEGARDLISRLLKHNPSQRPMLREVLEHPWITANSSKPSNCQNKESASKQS
# Jak3 = molecular target: T3, Jak3 (Homo sapiens, UniProt P52333); test: AlphaScreen kinase assay, Jak3; conditions: read-out: IC50, activity toward kinase Jak3
# T3 sequence (P52333 1-1124): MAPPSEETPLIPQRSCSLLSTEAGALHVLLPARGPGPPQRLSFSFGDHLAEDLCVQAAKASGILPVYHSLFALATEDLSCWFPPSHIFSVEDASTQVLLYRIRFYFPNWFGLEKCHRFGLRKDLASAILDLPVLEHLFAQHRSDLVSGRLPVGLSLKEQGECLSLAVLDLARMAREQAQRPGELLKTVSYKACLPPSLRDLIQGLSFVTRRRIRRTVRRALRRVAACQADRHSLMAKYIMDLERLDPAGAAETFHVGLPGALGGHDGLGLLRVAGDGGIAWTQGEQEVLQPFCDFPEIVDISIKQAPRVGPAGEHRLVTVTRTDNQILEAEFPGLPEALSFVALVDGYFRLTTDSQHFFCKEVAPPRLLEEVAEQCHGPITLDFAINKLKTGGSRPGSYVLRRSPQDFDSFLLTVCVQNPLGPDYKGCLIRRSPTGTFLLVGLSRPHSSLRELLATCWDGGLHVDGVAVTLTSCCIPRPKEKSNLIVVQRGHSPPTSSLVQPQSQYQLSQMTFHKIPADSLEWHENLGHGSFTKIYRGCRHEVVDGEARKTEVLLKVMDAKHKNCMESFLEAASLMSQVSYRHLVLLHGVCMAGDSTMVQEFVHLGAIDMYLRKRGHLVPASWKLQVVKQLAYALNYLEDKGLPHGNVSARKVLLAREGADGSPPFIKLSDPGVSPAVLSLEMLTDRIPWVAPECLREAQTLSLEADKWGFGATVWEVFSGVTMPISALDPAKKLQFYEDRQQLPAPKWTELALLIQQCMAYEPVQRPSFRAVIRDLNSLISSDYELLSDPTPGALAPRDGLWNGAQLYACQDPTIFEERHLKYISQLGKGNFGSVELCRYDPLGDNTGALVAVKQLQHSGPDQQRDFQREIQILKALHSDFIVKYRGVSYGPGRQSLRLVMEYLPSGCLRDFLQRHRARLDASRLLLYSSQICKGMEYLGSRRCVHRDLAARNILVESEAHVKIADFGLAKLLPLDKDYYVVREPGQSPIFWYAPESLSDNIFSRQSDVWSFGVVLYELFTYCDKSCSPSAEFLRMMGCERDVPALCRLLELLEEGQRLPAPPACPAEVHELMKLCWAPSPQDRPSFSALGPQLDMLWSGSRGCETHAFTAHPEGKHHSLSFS
# Source text: as §1, §2
# B-Raf V600E = molecular target: T4, B-Raf V600E (Homo sapiens, UniProt P15056, V600E); test: AlphaScreen kinase assay, B-Raf V600E; conditions: read-out: IC50, activity toward kinase B-Raf V600E
# T4 construct: P4254. pFastBacBD-CDC37 BRAF D437-K722-X, V600E; His6 with pFastBac HT leader (TEV site) (N); made in house; host or cells: Sf9 (baculovirus; chaperone CDC37 co-expressed)
# Kdr = molecular target: T5, Kdr (Homo sapiens, UniProt P35968); test: Z'-Lyte FRET kinase assay (Invitrogen), Kdr; conditions: read-out: IC50, activity toward kinase Kdr
# T5 construct: purchased Invitrogen (assay run by Invitrogen)
# IGF1R = IGF1R (Homo sapiens, UniProt P08069); test: AlphaScreen kinase assay, IGF1R; conditions: read-out: IC50, activity toward kinase IGF1R
# Kit = molecular target: T6, Kit (Homo sapiens, UniProt P10721); test: AlphaScreen kinase assay, Kit; conditions: read-out: IC50, activity toward kinase Kit
# T6 construct: P1332.N6 BI PTP KIT M552-K948-X COD; His6 (N); made in house; host or cells: E. coli (PTP1B co-expressed)
# FGFR1 = molecular target: T7, FGFR1 (Homo sapiens, UniProt P11362, C488A/C584S); test: AlphaScreen kinase assay, FGFR1; conditions: read-out: IC50, activity toward kinase FGFR
# T7 construct: P1351.pET N6 BI-PTP FGFR A458-E765-X C488A, C584S; made in house; host or cells: E. coli (PTP1B co-expressed)
# c-Raf-1 = molecular target: T8, c-Raf-1 (Homo sapiens, UniProt P04049); test: AlphaScreen kinase assay, c-Raf-1; conditions: read-out: IC50, activity toward kinase c-Raf-1
# T8 construct: purchased Upstate Biotechnology
# B-Raf = molecular target: T9, B-Raf (Homo sapiens, UniProt P15056); test: AlphaScreen kinase assay, B-Raf; conditions: read-out: IC50, activity toward kinase B-Raf
# T9 construct: purchased Upstate Biotechnology
# Pyk2 = molecular target: T10, Pyk2 (Homo sapiens, UniProt Q14289); test: AlphaScreen kinase assay, Pyk2; conditions: read-out: IC50, activity toward kinase Pyk2
# T10 construct: purchased Upstate Biotechnology
# Jnk3 = molecular target: T11, Jnk3 (Homo sapiens, UniProt P53779); test: AlphaScreen kinase assay, Jnk3; conditions: read-out: IC50, activity toward kinase Jnk3
# T11 construct: purchased Upstate Biotechnology
# Ret = molecular target: T12, Ret (Homo sapiens, UniProt P07949); test: AlphaScreen kinase assay, Ret; conditions: read-out: IC50, activity toward kinase Ret
# T12 construct: P1378.pET-SF BI-PTP RET H661-R1012 HIS; made in house
# T12 sequence (P07949 with tags, fused parts or gaps): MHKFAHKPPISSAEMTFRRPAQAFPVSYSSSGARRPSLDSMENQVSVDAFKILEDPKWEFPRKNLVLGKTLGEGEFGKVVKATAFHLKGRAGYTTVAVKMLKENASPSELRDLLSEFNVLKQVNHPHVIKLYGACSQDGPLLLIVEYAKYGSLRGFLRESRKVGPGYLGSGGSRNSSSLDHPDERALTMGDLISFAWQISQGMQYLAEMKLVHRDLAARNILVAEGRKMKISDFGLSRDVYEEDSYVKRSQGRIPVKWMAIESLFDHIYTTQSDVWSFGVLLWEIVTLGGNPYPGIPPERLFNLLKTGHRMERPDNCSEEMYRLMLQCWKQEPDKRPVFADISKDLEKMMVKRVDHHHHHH
# Chain of Plk1 (P53350 whole entry): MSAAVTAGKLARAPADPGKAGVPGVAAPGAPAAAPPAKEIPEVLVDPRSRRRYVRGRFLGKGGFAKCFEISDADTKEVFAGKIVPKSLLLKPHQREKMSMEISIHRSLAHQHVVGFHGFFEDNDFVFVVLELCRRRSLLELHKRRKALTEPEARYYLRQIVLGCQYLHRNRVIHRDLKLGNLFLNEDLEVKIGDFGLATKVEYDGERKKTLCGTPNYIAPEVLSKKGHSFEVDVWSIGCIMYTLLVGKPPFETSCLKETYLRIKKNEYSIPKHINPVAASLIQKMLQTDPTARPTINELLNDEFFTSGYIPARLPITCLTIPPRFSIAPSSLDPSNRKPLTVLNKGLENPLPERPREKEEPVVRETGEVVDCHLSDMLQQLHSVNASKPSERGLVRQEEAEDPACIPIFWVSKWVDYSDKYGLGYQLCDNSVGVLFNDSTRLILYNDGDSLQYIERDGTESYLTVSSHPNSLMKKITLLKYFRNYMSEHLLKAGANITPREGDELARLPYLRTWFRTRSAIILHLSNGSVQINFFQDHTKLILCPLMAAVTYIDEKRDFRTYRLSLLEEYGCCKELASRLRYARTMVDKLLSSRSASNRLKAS
# T4 sequence (P15056 with tags, fused parts or gaps V600E): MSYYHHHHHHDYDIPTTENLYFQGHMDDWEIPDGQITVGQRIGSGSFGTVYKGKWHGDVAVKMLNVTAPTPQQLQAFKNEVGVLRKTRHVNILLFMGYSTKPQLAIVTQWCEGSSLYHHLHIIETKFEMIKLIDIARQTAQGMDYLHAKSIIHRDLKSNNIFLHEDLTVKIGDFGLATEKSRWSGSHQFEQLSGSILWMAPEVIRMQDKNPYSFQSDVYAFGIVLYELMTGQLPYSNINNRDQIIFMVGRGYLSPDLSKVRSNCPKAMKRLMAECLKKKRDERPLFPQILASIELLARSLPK
# T5 sequence (P35968 20-1356): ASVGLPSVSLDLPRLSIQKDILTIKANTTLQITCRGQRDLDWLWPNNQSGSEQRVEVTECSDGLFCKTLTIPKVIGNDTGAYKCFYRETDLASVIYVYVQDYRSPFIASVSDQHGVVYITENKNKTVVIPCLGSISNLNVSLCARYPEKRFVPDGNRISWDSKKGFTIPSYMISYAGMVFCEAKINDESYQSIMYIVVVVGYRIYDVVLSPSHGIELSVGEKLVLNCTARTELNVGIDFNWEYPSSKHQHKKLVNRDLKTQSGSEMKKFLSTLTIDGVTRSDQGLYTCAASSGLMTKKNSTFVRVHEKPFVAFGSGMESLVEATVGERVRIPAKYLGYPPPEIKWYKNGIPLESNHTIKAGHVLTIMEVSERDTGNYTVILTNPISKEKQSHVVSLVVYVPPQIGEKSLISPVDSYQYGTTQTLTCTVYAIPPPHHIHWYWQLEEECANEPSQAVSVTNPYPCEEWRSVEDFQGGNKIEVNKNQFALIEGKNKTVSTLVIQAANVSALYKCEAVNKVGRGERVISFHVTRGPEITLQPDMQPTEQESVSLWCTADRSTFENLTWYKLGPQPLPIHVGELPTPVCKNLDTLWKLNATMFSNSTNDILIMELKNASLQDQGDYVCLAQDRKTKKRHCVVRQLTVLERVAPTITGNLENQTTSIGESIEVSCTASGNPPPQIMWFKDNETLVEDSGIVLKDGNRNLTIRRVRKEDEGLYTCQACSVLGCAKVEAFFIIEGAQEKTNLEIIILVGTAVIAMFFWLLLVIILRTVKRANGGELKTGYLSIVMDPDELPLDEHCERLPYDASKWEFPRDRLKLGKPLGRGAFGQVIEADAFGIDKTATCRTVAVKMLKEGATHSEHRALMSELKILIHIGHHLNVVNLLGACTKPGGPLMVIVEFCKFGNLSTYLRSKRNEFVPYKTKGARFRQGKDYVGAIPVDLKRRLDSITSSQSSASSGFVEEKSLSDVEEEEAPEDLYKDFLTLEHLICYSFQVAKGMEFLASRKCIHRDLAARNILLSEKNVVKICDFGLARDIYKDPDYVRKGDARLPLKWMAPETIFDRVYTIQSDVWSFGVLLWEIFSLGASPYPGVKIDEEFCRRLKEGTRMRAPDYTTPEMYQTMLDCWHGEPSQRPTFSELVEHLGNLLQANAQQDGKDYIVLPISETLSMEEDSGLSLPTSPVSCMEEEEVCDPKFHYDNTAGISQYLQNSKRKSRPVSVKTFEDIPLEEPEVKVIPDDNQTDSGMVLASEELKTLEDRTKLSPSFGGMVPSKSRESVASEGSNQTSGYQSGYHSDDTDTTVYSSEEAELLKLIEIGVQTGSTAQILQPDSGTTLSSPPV
# Chain of IGF1R (P08069 31-1367): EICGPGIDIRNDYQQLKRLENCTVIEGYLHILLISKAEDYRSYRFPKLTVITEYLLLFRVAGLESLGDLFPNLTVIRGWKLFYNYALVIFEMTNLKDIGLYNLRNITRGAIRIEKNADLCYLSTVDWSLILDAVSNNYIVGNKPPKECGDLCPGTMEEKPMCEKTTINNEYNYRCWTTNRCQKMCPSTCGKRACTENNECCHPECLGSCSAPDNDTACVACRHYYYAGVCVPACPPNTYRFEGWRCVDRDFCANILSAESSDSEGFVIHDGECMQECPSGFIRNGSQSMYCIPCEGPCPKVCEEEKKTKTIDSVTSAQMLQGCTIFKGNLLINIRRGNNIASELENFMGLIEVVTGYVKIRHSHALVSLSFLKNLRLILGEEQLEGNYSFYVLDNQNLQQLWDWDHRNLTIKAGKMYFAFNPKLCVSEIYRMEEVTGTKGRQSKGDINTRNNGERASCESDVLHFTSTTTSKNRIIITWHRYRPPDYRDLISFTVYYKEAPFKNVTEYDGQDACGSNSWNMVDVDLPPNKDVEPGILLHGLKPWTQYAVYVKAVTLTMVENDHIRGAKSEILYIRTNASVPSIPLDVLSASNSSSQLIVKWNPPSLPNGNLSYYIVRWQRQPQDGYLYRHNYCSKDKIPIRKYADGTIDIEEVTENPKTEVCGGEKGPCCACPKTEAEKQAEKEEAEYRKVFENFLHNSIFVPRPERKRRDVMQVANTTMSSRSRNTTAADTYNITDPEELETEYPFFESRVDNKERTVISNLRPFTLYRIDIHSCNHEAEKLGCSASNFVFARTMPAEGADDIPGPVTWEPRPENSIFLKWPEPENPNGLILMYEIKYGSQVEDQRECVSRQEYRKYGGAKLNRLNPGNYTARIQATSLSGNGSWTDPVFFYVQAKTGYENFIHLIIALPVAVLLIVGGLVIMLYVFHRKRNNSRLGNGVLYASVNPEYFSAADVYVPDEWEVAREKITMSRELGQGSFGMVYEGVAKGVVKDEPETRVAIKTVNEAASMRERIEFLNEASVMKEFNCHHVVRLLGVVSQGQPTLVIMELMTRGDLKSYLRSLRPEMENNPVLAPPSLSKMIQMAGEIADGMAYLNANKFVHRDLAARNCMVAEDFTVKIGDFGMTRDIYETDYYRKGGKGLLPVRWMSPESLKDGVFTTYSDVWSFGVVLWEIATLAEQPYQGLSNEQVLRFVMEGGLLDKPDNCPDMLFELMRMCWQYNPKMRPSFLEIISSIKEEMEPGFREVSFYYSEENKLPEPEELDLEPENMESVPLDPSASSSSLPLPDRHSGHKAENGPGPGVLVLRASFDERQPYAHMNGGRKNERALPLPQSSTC
# T8 sequence (P04049 whole entry): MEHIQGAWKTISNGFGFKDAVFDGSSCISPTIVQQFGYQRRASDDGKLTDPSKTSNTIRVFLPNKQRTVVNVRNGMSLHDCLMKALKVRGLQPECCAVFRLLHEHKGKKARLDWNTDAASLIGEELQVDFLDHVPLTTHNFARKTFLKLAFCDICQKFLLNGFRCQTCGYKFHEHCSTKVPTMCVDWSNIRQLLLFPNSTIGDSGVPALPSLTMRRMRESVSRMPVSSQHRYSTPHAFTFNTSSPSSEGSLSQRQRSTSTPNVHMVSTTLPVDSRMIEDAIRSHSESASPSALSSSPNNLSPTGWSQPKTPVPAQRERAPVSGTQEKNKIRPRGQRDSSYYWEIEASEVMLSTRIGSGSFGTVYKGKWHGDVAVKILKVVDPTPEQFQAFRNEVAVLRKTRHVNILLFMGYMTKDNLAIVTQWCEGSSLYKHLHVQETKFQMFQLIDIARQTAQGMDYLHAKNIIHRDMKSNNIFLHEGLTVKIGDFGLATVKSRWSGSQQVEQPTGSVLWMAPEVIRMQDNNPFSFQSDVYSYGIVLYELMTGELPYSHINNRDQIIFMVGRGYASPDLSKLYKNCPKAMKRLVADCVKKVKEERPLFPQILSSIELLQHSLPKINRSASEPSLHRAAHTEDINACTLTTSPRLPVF
# T9 sequence (P15056 whole entry): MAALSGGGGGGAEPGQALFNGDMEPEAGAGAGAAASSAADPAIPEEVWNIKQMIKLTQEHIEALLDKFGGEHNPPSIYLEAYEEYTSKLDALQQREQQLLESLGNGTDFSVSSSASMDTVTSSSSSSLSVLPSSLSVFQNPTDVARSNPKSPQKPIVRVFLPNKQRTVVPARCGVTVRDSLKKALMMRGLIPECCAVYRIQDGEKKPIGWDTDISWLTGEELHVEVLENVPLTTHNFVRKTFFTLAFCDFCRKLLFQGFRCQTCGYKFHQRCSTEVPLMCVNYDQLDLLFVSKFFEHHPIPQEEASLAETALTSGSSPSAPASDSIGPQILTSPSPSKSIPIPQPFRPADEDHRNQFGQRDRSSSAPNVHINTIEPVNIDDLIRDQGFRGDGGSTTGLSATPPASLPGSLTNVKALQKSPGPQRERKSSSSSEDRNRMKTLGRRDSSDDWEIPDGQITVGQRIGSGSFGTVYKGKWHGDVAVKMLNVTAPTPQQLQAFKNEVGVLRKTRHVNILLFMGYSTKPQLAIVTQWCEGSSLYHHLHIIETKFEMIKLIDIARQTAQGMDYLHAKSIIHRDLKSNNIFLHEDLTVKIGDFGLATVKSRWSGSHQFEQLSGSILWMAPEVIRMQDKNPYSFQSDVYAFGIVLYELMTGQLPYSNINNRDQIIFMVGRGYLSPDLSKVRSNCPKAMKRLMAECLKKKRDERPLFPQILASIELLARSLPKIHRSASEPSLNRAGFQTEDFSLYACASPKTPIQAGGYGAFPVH
Structure (SMILES),IC50 (Met),IC50 (Plk1),IC50 (Stk6),IC50 (Jak3),IC50 (B-Raf V600E),IC50 (Kdr),IC50 (IGF1R),IC50 (Kit),IC50 (FGFR1),IC50 (c-Raf-1),IC50 (B-Raf),IC50 (Pyk2),IC50 (Jnk3),IC50 (Ret)
OCc1cccc(-c2ccnc3[nH]cc(Sc4ccccc4)c23)c1 [Compound P-0146],≤ 10 µM,≤ 10 µM,≤ 10 µM,≤ 10 µM,≤ 10 µM,,,,,,,,,
OCc1cccc(-c2cnc3[nH]ccc3c2)c1 [Compound P-0157],,,≤ 10 µM,,,≤ 10 µM,≤ 10 µM,≤ 10 µM,,,,,,
COc1cccc(-c2cnc3[nH]ccc3c2)c1 [Compound P-0213],,,≤ 10 µM,,,≤ 10 µM,≤ 10 µM,≤ 10 µM,,,,,≤ 10 µM,

# Further lines, results first:
IC50 (Met),IC50 (Plk1),IC50 (Stk6),IC50 (Jak3),IC50 (B-Raf V600E),IC50 (Kdr),IC50 (IGF1R),IC50 (Kit),IC50 (FGFR1),IC50 (c-Raf-1),IC50 (B-Raf),IC50 (Pyk2),IC50 (Jnk3),IC50 (Ret),Structure (SMILES)
,≤ 10 µM,,≤ 10 µM,≤ 10 µM,,,,≤ 10 µM,≤ 10 µM,≤ 10 µM,≤ 10 µM,,,CC(C)S(=O)(=O)Nc1ccc(F)c(C(O)c2c[nH]c3ncc(Br)cc23)c1F (stereo not drawn) [Compound P-0178]
,,≤ 10 µM,,,≤ 10 µM,≤ 10 µM,,,,,,,,COc1ccc(-c2cnc3[nH]ccc3c2)cc1OC [Compound P-0212]
,≤ 10 µM,,≤ 10 µM,≤ 10 µM,,,,,≤ 10 µM,≤ 10 µM,,,≤ 10 µM,O=C(c1cc(O)ccc1F)c1c[nH]c2nccc(-c3ccccc3)c12 [Compound P-0863]

# From patent US8415469B2, “Compounds and methods for kinase modulation, and indications therefor” (Plexxikon Inc., priority 2005, dated 2013)
